Test results: patent US20090291945A1, “CYSTEINE PROTEASE INHIBITORS” (Teijin Pharma Limited, priority 2008, published 2009)

Target: T1, cathepsin K (Homo sapiens, UniProt P43235)
T1 construct: the active enzyme was obtained as the enzyme fraction by using detergent containing lysis buffer; made in house; host or cells: HEK293T (GenHunter Corporation), transient expression; detergent lysate used as enzyme fraction
T1 sequence (P43235 115-329): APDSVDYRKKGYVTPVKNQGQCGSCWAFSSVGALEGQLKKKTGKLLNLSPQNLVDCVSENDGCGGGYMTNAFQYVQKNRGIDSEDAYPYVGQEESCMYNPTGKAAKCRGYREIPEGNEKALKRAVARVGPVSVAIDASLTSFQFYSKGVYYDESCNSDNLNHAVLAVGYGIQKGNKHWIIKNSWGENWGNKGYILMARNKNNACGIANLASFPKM
Assay: Cathepsin K inhibitory activity (fluorescent substrate Z-Leu-Arg-MCA)
Type: biochemical
Conditions: enzyme expressed in HEK293T; 15 min preincubation, 30 min reaction at room temperature, pH 5.5; read-out: Activity Intensity (cathepsin K inhibitory activity, pIC50 class) (converted)
Description: Cathepsin K inhibitory activities of the compounds synthesized according to the methods of the above examples were measured.
Cathepsin K used for evaluation of inhibitory activity was transiently expressed in an animal cell HEK293T (made by GenHunter Corporation) and the active enzyme was obtained as the enzyme fraction by using detergent containing lysis buffer.
The enzyme solution A was prepared at 2.1 times final concentration by diluting the enzyme fraction with assay buffer (50 mM sodium acetate, 50 mM sodium chloride, 2 mM DTT, pH 5.5). The test compound solutions B were prepared at 50 times final target concentrations by dimethylsulfoxide (DMSO). As a substrate solution C, a solution of a fluorescent substrate, benzyloxycarbonyl-L-leucyl-L-arginyl-4-methyl-coumaryl-7-amide (Z-Leu-Arg-MCA (Peptide Institute Inc.), was prepared at 10 μM by an assay buffer.
To the enzyme solution A (38.4 μL) were added the test compound solutions B (1.6 μL) and mixed individually. The mixtures were incubated at room temperature for 15 minutes. To the incubated solutions were added the substrate solution C (40 μL) and the mixtures were reacted at room temperature for 30 minutes respectively. The fluorescence intensities of the enzyme reaction solutions were measured at excitation wavelength of 355 nm and measurement wavelength of 460 nm and the enzyme activities were calculated from these fluorescence intensities caused by 7-amino-4-methylcoumarine released. The enzyme activity with using DMSO instead of the test compound solution B was taken as 100% and the inhibitory rates at each concentration of the test compound were calculated. The […] response curve was fitted to the plots. The 50% inhibitory concentration against cathepsin K was calculated from this curve.
Note that the symbols (+, ++, and +++) in this table represent the inhibitory activity values as below. Here, pIC50 is the value representing a negative logarithm of IC50, (−log10(IC50)). IC50 is a 50% inhibitory concentration.

| Structure (SMILES) | IC50 [nM] |
| --- | --- |
| CC[C@@H](CNc1ccc(OC)cc1)NC(=O)[C@H](CC(C)(C)F)N[C@@H](c1ccc(-c2ccc(S(C)(=O)=O)cc2)cc1)C(F)(F)F [Compound 1, (2S)—N-((1S)-1-{[(4-methoxyphenyl)amino]methyl}propyl)-2-[((1S)-2,2,2-trifluoro-1-{4-[4-(methylsulfonyl)phenyl]phenyl}ethyl)amino]-4-fluoro-4-methylpentanamide] | 3.16 to 31.6 |
| COc1ccc(NC[C@H](COCc2ccccc2)NC(=O)[C@H](CC(C)(C)F)N[C@@H](c2ccc(-c3ccc(S(C)(=O)=O)cc3)cc2)C(F)(F)F)cc1 [Compound 2, N-{(1R)-2-[(4-methoxyphenyl)amino]-1-[(phenylmethoxy)methyl]ethyl}(2S)-2-[((1S)-2,2,2-trifluoro-1-{4-[4-(methylsulfonyl)phenyl]phenyl}ethyl)amino]-4-fluoro-4-methylpentanamide] | 31.6 to 10000 |
| COc1ccc(NC[C@H](CO)NC(=O)[C@H](CC(C)(C)F)N[C@@H](c2ccc(-c3ccc(S(C)(=O)=O)cc3)cc2)C(F)(F)F)cc1 [Compound 3, N-((1R)-2-hydroxy-1-{[(4-methoxyphenyl)amino]methyl}ethyl)(2S)-2-[((1S)-2,2,2-trifluoro-1-{4-[4-(methylsulfonyl)phenyl]phenyl}ethyl)amino]-4-fluoro-4-methylpentanamide] | 3.16 to 31.6 |
| CCOc1ccc(NC[C@H](CC)NC(=O)[C@H](CC(C)(C)F)N[C@@H](c2ccc(-c3ccc(S(C)(=O)=O)cc3)cc2)C(F)(F)F)cc1OCC [Compound 4, (2S)—N-((1S)-1-{[(3,4-diethoxyphenyl)amino]methyl}propyl)-2-[((1S)-2,2,2-trifluoro-1-{4-[4-(methylsulfonyl)phenyl]phenyl}ethyl)amino]-4-fluoro-4-methylpentanamide] | ≤ 3.16 |
| CC[C@@H](CNc1ccc(OC)cc1OC)NC(=O)[C@H](CC(C)(C)F)N[C@@H](c1ccc(Br)cc1)C(F)(F)F [Compound 6] | ≤ 3.16 |
| CC[C@@H](CNc1ccc(OC)cc1OC)NC(=O)C1(NC(c2ccccc2)C(F)(F)F)CCCCC1 (stereo partly drawn) [Compound 8, N-((1S)-1-{[(2,4-dimethoxyphenyl)amino]methyl}propyl){[(2,2,2-trifluoro-1-phenylethyl)amino]cyclohexyl}carboxamide] | 3.16 to 31.6 |
| CC[C@@H](CNc1ccc(N2CCOCC2)cc1)NC(=O)[C@H](CC(C)(C)F)N[C@@H](c1ccc(-c2ccc(S(C)(=O)=O)cc2)cc1)C(F)(F)F [Compound 9, (2S)—N-((1S)-1-{[(4-morpholin-4-ylphenyl)amino]methyl}propyl)-2-[((1S)-2,2,2-trifluoro-1-{4-[4-(methylsulfonyl)phenyl]phenyl}ethyl)amino]-4-fluoro-4-methylpentanamide] | ≤ 3.16 |
| CC[C@@H](CNc1ccc(N2CCCCC2)cc1)NC(=O)[C@H](CC(C)(C)F)N[C@@H](c1ccc(-c2ccc(S(C)(=O)=O)cc2)cc1)C(F)(F)F [Compound 10, (2S)—N-((1S)-1-{[(4-piperidin-1-ylphenyl)amino]methyl}propyl)-2-[((1S)-2,2,2-trifluoro-1-{4-[4-(methylsulfonyl)phenyl]phenyl}ethyl)amino]-4-fluoro-4-methylpentanamide] | ≤ 3.16 |
| CC[C@@H](CNc1ccc(N2CCOCC2)cc1)NC(=O)C1(NC(c2ccccc2)C(F)(F)F)CCCCC1 (stereo partly drawn) [Compound 11, N-((1S)-1-{[(4-morpholin-1-ylphenyl)amino]methyl}propyl) {[(2,2,2-trifluoro-1-phenylethyl)amino]cyclohexyl}carboxamide] | 3.16 to 31.6 |
| CC[C@@H](CNc1ccc(N(C)C)cc1)NC(=O)[C@H](CC(C)(C)F)N[C@@H](c1ccc(-c2ccc(S(C)(=O)=O)cc2)cc1)C(F)(F)F [Compound 12] | ≤ 3.16 |
| CC[C@@H](CNc1ccc(N(C)C)cc1)NC(=O)[C@H](CC(C)(C)F)N[C@@H](c1ccc(Br)cc1)C(F)(F)F [Compound 13] | ≤ 3.16 |
| CC[C@@H](CNc1ccc(N(C)C)cc1)NC(=O)C1(NC(c2ccccc2)C(F)(F)F)CCCCC1 (some centres unmarked) [Compound 14] | 31.6 to 10000 |
| CC[C@@H](CNc1c(OC)cccc1OC)NC(=O)[C@H](CC(C)(C)F)N[C@@H](c1ccc(Br)cc1)C(F)(F)F [Compound 15] | 3.16 to 31.6 |
| CC[C@@H](CNc1ccc(OCCSC)cc1OC)NC(=O)[C@H](CC(C)(C)F)N[C@@H](c1ccc(Br)cc1)C(F)(F)F [Compound 16, (2S)-2-{[(1S)-1-(4-bromophenyl)-2,2,2-trifluoroethyl]amino}-N-[(1S)-1-({[2-methoxy-4-(2-methylthioethoxy)phenyl]amino}methyl)propyl]-4-fluoro-4-methylpentanamide] | ≤ 3.16 |
| CC[C@@H](CNc1ccc(N2CCSCC2)cc1OC)NC(=O)[C@H](CC(C)(C)F)N[C@@H](c1ccc(Br)cc1)C(F)(F)F [Compound 17] | ≤ 3.16 |
| CC[C@@H](CNc1ccc(N2CCSCC2)cc1)NC(=O)[C@H](CC(C)(C)F)N[C@@H](c1ccc(Br)cc1)C(F)(F)F [Compound 18] | ≤ 3.16 |
| CC[C@@H](CNc1ccc(OC)nc1OC)NC(=O)[C@H](CC(C)(C)F)N[C@@H](c1ccc(Br)cc1)C(F)(F)F [Compound 19] | 3.16 to 31.6 |
| CC[C@@H](CNc1ccc(OCC(=O)OCc2ccccc2)cc1OC)NC(=O)[C@H](CC(C)(C)F)N[C@@H](c1ccc(Br)cc1)C(F)(F)F [Compound 20, Phenylmethyl 2-{4-[((2S)-2-{(2S)-2-{[(1S)-2,2,2-trifluoro-1-(4-bromophenyl)ethyl]amino}-4-fluoro-4-methylpentanoylamino}butyl)amino]-3-methoxyphenoxy}acetate] | ≤ 3.16 |

| Structure (SMILES) | IC50 [nM] |
| --- | --- |
| CC[C@@H](CNc1ccc(OC(C)C(=O)OC)cc1OC)NC(=O)[C@H](CC(C)(C)F)N[C@@H](c1ccccc1)C(F)(F)F (stereo partly drawn) [Compound 21, Methyl 2-{4-[((2S)-2-{(2S)-2-[((1S)-2,2,2-trifluoro-1-phenylethyl)amino]-4-fluoro-4-methylpentanoylamino}butyl)amino]-3-methoxyphenoxy}propanoate] | 3.16 to 31.6 |
| CC[C@@H](CNc1ccc(OCC(F)(F)C(F)F)cc1OC)NC(=O)[C@H](CC(C)(C)F)N[C@@H](c1ccccc1)C(F)(F)F [Compound 22] | 3.16 to 31.6 |
| CC[C@@H](CNc1ccc(OC)cc1OC)NC(=O)[C@H](CC(C)C)N[C@@H](c1ccc(S(C)(=O)=O)cc1)C(F)(F)F [Compound 23] | ≤ 3.16 |
| CC[C@@H](CNc1ccc(N2CCOCC2)cc1)NC(=O)[C@H](CC(C)C)N[C@@H](c1ccc(S(C)(=O)=O)cc1)C(F)(F)F [Compound 24] | ≤ 3.16 |
| CC[C@@H](CNc1ccc(OC)cc1OC)NC(=O)[C@H](CC(C)C)N[C@@H](c1ccc(OC)nc1)C(F)(F)F [Compound 25] | 3.16 to 31.6 |
| CC[C@@H](CNc1ccc(N2CCOCC2)cc1)NC(=O)[C@H](CC(C)C)N[C@@H](c1ccc(OC)nc1)C(F)(F)F [Compound 26] | ≤ 3.16 |
| CC[C@@H](CNc1ccc(N2CCOCC2)cc1)NC(=O)[C@H](CC(C)C)N[C@@H](c1cccnc1)C(F)(F)F [Compound 27] | ≤ 3.16 |
| CC[C@@H](CNc1ccc(OC)cc1OC)NC(=O)C1(N[C@@H](c2ccccc2)C(F)(F)F)CCCC1 [Compound 28] | 31.6 to 10000 |
| CC[C@@H](CNc1ccc(N2CCOCC2)cc1)NC(=O)[C@H](CC(C)C)N[C@@H](c1ccc2c(c1)OCO2)C(F)(F)F [Compound 29] | ≤ 3.16 |
| CC[C@@H](CNc1ccc(N2CCOCC2)cc1)NC(=O)[C@H](CC(C)C)N[C@@H](c1ccc(OCCOC)cc1)C(F)(F)F [Compound 30] | ≤ 3.16 |
| CC[C@@H](CNc1ccc(N2CCOCC2)cc1)NC(=O)[C@H](CC(C)C)N[C@@H](c1ccccn1)C(F)(F)F [Compound 32] | ≤ 3.16 |
| CC[C@@H](CNc1ccc(N2CCOCC2)cc1)NC(=O)[C@H](CC(C)C)N[C@@H](c1ccc(OC(F)F)cc1)C(F)(F)F [Compound 33] | ≤ 3.16 |
| CC[C@@H](CNc1ccc(N2CCOCC2)cc1)NC(=O)[C@H](CC(C)C)N[C@@H](c1ccc(Cl)cc1)C(F)(F)F [Compound 34] | ≤ 3.16 |
| CC[C@@H](CNc1ccc(N2CCOCC2)cc1)NC(=O)[C@H](CC(C)C)N[C@@H](c1ccc(N(C)C)cc1)C(F)(F)F [Compound 35] | ≤ 3.16 |
| CC[C@@H](CNc1ccc(N2CCOCC2)cc1)NC(=O)[C@H](CC(C)C)N[C@@H](Cc1ccccc1)C(F)(F)F [Compound 37] | ≤ 3.16 |
| CC[C@@H](CNc1ccc(OCCS(C)(=O)=O)cc1OC)NC(=O)[C@H](CC(C)C)N[C@@H](c1ccc(OC)nc1)C(F)(F)F [Compound 38] | 3.16 to 31.6 |
| CC[C@@H](CNc1ccc(OCCS(C)(=O)=O)cc1OC)NC(=O)[C@H](CC(C)C)N[C@@H](c1cccnc1)C(F)(F)F [Compound 39] | 3.16 to 31.6 |
